Assay results reported in patent US20220402916A1, “SMALL MOLECULE INHIBITORS OF KRAS G12C MUTANT” (Merck Sharp & Dohme Corp., priority 2019, published 2022).

The compounds below were run against T1, Biotinylated KRAS G12C protein (Homo sapiens, UniProt P01116, C118S/C51S/C80L/G12C) (assay: SOS-catalyzed nucleotide exchange assay). Conditions: 10,000 nM; 60 minutes of preincubation prior to addition of SOS.
T1 construct: 183 amino acids; biotin on K10
Assay type: biochemical
Experimental: Compounds are added to this complex, and then after 60 minute incubation time the mixture is treated with recombinant SOS protein and unlabeled GTP. Small molecule inhibitors stabilize the Bodipy-GDP complex whereas the untreated protein rapidly exchanges Bodipy-GDP for unlabeled GTP resulting in reduced TR-FRET signal. […] This mixture is then further diluted to 90 nM in an assay buffer (20 mM HEPES, 150 mM sodium chloride, 10 mM magnesium chloride, and 0.005% Tween) containing 15 nM of Terbium-Streptavidin (Invitrogen, catalog #PV3577) and 900 nM of Bodipy-GDP and incubated at room temperature for six hours. […] Each test compound (10 mM stock in DMSO) is diluted in DMSO to make a 10-point, 3-fold dilution series in a 384-well low dead volume microplate (Labcyte, catalog #LP-0200). Once titrations are made, 10 nL of the diluted compounds is acoustically dispensed into a 384-well assay plate (Corning, catalog #3820) using an Echo 550 (Labcyte). […] Each well then receives 3 μL of 240 nM recombinant human SOS protein and 9 mM GTP (Sigma, G8877) in assay buffer and is incubated at room temperature for 60 minutes. The time-resolved fluorescence resonance energy transfer signal for the assay plate is measured on an Envision (PerkinElmer) plate reader: Excitation filter=340 nm; emission1=495 nm; emission2=520 nm; dichroic mirror=D400/D505; delay time=100 μs. The signal of each well is determined as the ratio of the emission at 520 nm to that at 495 nm. […] The apparent effect as a function of compound concentration is fit to a four parameter logistic equation.

T1 sequence (P01116 with tags, fused parts or gaps isoform P01116-2 G12C/C51S/C80L/C118S): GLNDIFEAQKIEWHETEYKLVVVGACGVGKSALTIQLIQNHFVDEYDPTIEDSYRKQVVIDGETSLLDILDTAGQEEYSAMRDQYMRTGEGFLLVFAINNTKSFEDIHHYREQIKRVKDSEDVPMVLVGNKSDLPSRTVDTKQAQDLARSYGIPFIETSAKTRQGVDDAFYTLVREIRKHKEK

inhibition at 10 µM [%]	SMILES
29	C=CC(=O)N1CCN(c2cc(C(=O)N[C@@H]3COC[C@@H]3N3CCOCC3)nc3c2CCN(c2cccc4cccc(C)c24)C3)CC1 (racemic) [Compound 27, rac-4-(4-acryloylpiperazin-1-yl)-7-(8-methylnaphthalen-1-yl)-N-(cis-4-morpholinotetrahydrofuran-3-yl)-5,6,7,8-tetrahydro-1,7-naphthyridine-2-carboxamide]
38	C=CC(=O)N1C[C@H](C)N(c2cc(C(=O)NCCN(C)C)nc3c2CCN(c2cccc4cccc(C)c24)C3)C[C@H]1C [Compound 59, 4-((2S,5R)-4-acryloyl-2,5-dimethylpiperazin-1-yl)-N-(2-(dimethylamino)ethyl)-7-(8-methylnaphthalen-1-yl)-5,6,7,8-tetrahydro-1,7-naphthyridine-2-carboxamide]
33	C=CC(=O)N1CCN(c2cc(C(=O)NCCN3CCOCC3)nc3c2CCN(c2cccc4ccccc24)C3)CC1 [Compound 9, 4-(4-acryloylpiperazin-1-yl)-N-(2-morpholinoethyl)-7-(naphthalen-1-yl)-5,6,7,8-tetrahydro-1,7-naphthyridine-2-carboxamide]
33	C=CC(=O)N1CCN(c2cc(C(=O)N3CCC[C@@H]3CN3CCC(=O)N3)nc3c2CCN(c2cccc4cccc(C)c24)C3)CC1 [Compound 43, (R)-1-((1-(4-(4-acryloylpiperazin-1-yl)-7-(8-methylnaphthalen-1-yl)-5,6,7,8-tetrahydro-1,7-naphthyridine-2-carbonyl)pyrrolidin-2-yl)methyl)pyrazolidin-3-one]
39	C=CC(=O)N1CCN(c2cc(C(=O)N[C@H]3COC[C@@H]3N3CCOCC3)nc3c2CCN(c2cccc4cccc(C)c24)C3)CC1 (racemic) [Compound 35, rac-4-(4-acryloylpiperazin-1-yl)-7-(8-methylnaphthalen-1-yl)-N-(trans-4-morpholinotetrahydrofuran-3-yl)-5,6,7,8-tetrahydro-1,7-naphthyridine-2-carboxamide]

Same assay, conditions: apparent potency; preincubation time of 60 minutes prior to addition of SOS

IC50 [nM]	SMILES
4900	C=CC(=O)N1CCN(c2cc(C(=O)N[C@H]3CCCC[C@@H]3N)nc3c2CCN(c2cccc4cccc(C)c24)C3)CC1 [Compound 30, 4-(4-acryloylpiperazin-1-yl)-N-((1S,2S)-2-aminocyclohexyl)-7-(8-methylnaphthalen-1-yl)-5,6,7,8-tetrahydro-1,7-naphthyridine-2-carboxamide]
2180	C=CC(=O)N1CCN(c2cc(C(=O)N[C@H]3CCN(C)C3)nc3c2CCN(c2cccc4cccc(C)c24)C3)CC1 [Compound 49, (S)-4-(4-acryloylpiperazin-1-yl)-7-(8-methylnaphthalen-1-yl)-N-(1-methylpyrrolidin-3-yl)-5,6,7,8-tetrahydro-1,7-naphthyridine-2-carboxamide]
468	C=CC(=O)N1CCN(c2cc(C(=O)N[C@H]3CC[C@@H]3N)nc3c2CCN(c2cccc4cccc(C)c24)C3)CC1 (racemic) [Compound 37, rac-4-(4-acryloylpiperazin-1-yl)-N-(trans-2-aminocyclobutyl)-7-(8-methylnaphthalen-1-yl)-5,6,7,8-tetrahydro-1,7-naphthyridine-2-carboxamide]
614	C=CC(=O)N1CCN(c2cc(C(=O)N[C@@H](C)CN(C)C)nc3c2CCN(c2cccc4cccc(C)c24)C3)CC1 [Compound 14, (S)-4-(4-acryloylpiperazin-1-yl)-N-(1-(dimethylamino)propan-2-yl)-7-(8-methylnaphthalen-1-yl)-5,6,7,8-tetrahydro-1,7-naphthyridine-2-carboxamide]
6650	C=CC(=O)N1CCN(c2cc(C(=O)N[C@H]3COC[C@@H]3N3CCN(C)CC3)nc3c2CCN(c2cccc4cccc(C)c24)C3)CC1 (racemic) [Compound 33, rac-4-(4-acryloylpiperazin-1-yl)-7-(8-methylnaphthalen-1-yl)-N-(trans-4-(4-methylpiperazin-1-yl)tetrahydrofuran-3-yl)-5,6,7,8-tetrahydro-1,7-naphthyridine-2-carboxamide]
3920	C=CC(=O)N1CCN(c2cc(C(=O)NCCN3CCCC3)nc3c2CCN(c2cccc4ccccc24)C3)CC1 [Compound 1, 4-(4-acryloylpiperazin-1-yl)-7-(naphthalen-1-yl)-N-(2-(pyrrolidin-1-yl)ethyl)-5,6,7,8-tetrahydro-1,7-naphthyridine-2-carboxamide]
5350	C=CC(=O)N1CCN(c2cc(C(=O)N3CCCC3CN3CCCCCC3)nc3c2CCN(c2cccc4cccc(C)c24)C3)CC1 (racemic) [Compound 45, rac-1-(4-(2-(2-(azepan-1-ylmethyl)pyrrolidine-1-carbonyl)-7-(8-methylnaphthalen-1-yl)-5,6,7,8-tetrahydro-1,7-naphthyridin-4-yl)piperazin-1-yl)prop-2-en-1-one]
3150	C=CC(=O)N1CCN(c2cc(C(=O)NCCN(C)C)nc3c2CCN(c2cccc4ccccc24)C3)CC1 [Compound 2, 4-(4-acryloylpiperazin-1-yl)-N-(2-(dimethylamino)ethyl)-7-(naphthalen-1-yl)-5,6,7,8-tetrahydro-1,7-naphthyridine-2-carboxamide]
145	C=CC(=O)N1CCN(c2cc(C(=O)NC(CN(C)C)C(C)C)nc3c2CCN(c2cccc4cccc(C)c24)C3)CC1 (racemic) [Compound 18, rac-4-(4-acryloylpiperazin-1-yl)-N-(1-(dimethylamino)-3-methylbutan-2-yl)-7-(8-methylnaphthalen-1-yl)-5,6,7,8-tetrahydro-1,7-naphthyridine-2-carboxamide]
187	C=CC(=O)N1CCN(c2cc(C(=O)NC3(CN(CC)CC)CC3)nc3c2CCN(c2cccc4cccc(C)c24)C3)CC1 [Compound 26, 4-(4-acryloylpiperazin-1-yl)-N-(1-((diethylamino)methyl)cyclopropyl)-7-(8-methylnaphthalen-1-yl)-5,6,7,8-tetrahydro-1,7-naphthyridine-2-carboxamide]
6020	C=CC(=O)N1CCN(c2cc(C(=O)NCC(C)N(C)C)nc3c2CCN(c2cccc4ccccc24)C3)CC1 (racemic) [Compound 5, rac-4-(4-acryloylpiperazin-1-yl)-N-(2-(dimethylamino)propyl)-7-(naphthalen-1-yl)-5,6,7,8-tetrahydro-1,7-naphthyridine-2-carboxamide]
7290	C=CC(=O)N1CCN(c2cc(C(=O)NC3CN(C)C3)nc3c2CCN(c2cccc4cccc(C)c24)C3)CC1 [Compound 48, 4-(4-acryloylpiperazin-1-yl)-N-(1-methylazetidin-3-yl)-7-(8-methylnaphthalen-1-yl)-5,6,7,8-tetrahydro-1,7-naphthyridine-2-carboxamide]
826	C=CC(=O)N1CCN(c2cc(C(=O)NCCN(C)C)nc3c2CCN(c2cccc4cccc(C)c24)C3)CC1 [Compound 13, 4-(4-acryloylpiperazin-1-yl)-N-(2-(dimethylamino)ethyl)-7-(8-methylnaphthalen-1-yl)-5,6,7,8-tetrahydro-1,7-naphthyridine-2-carboxamide]
2480	C=CC(=O)N1CCN(c2cc(C(=O)NCC3CCN(C)C3)nc3c2CCN(c2cccc4cccc(C)c24)C3)CC1 (racemic) [Compound 58, rac-4-(4-acryloylpiperazin-1-yl)-7-(8-methylnaphthalen-1-yl)-N-((1-methylpyrrolidin-3-yl)methyl)-5,6,7,8-tetrahydro-1,7-naphthyridine-2-carboxamide]
962	C=CC(=O)N1CCN(c2cc(C(=O)NC(CO)CN(C)C)nc3c2CCN(c2cccc4cccc(C)c24)C3)CC1 (racemic) [Compound 16, rac-4-(4-acryloylpiperazin-1-yl)-N-(1-(dimethylamino)-3-hydroxypropan-2-yl)-7-(8-methylnaphthalen-1-yl)-5,6,7,8-tetrahydro-1,7-naphthyridine-2-carboxamide]
259	C=CC(=O)N1CCN(c2cc(C(=O)N[C@@H]3CCC[C@H]3N(C)C)nc3c2CCN(c2cccc4cccc(C)c24)C3)CC1 (racemic) [Compound 29, rac-4-(4-acryloylpiperazin-1-yl)-N-(trans-2-(dimethylamino)cyclopentyl)-7-(8-methylnaphthalen-1-yl)-5,6,7,8-tetrahydro-1,7-naphthyridine-2-carboxamide]
5500	C=CC(=O)N1CCN(c2cc(C(=O)NC3CCCN(C)C3)nc3c2CCN(c2cccc4cccc(C)c24)C3)CC1 (racemic) [Compound 52, rac-4-(4-acryloylpiperazin-1-yl)-7-(8-methylnaphthalen-1-yl)-N-(1-methylpiperidin-3-yl)-5,6,7,8-tetrahydro-1,7-naphthyridine-2-carboxamide]
1490	C=CC(=O)N1CCN(c2cc(C(=O)N[C@H](C)CN3CCOCC3)nc3c2CCN(c2cccc4cccc(C)c24)C3)CC1 [Compound 24, (R)-4-(4-acryloylpiperazin-1-yl)-7-(8-methylnaphthalen-1-yl)-N-(1-morpholinopropan-2-yl)-5,6,7,8-tetrahydro-1,7-naphthyridine-2-carboxamide]
